For this test, the system named is diplopia and ptosis. The test can be described thus: Case report: patient with vertical diplopia and right ptosis treated orally. The class given is in vivo, human. From the text: A person presented with a three-week history of vertical diplopia that was incomitant and right ptosis.

Take `CCCc1nn(C)c2c(=O)[nH]c(-c3cc(S(=O)(=O)N4CCN(C)CC4)ccc3OCC)nc12` [Sildenafil]: the “resolution of diplopia and ptosis” value (same patient, after Mestinon failure, 25 mg tab four times daily) is “immediate resolution of dipolopia and ptosis”. The “time to resolution of diplopia and ptosis” value (same patient, 25 mg tab four times daily) is at most 24 h.
For `CN(C)C(=O)Oc1ccc[n+](C)c1` [Mestinon], where the note is “patient, three-week history of vertical diplopia and right ptosis, 60 mg three times daily”, the “relief of diplopia and ptosis” value is “failed to relieve the diplopia or the ptosis”.

The values above are taken from patent US6413968B1, “Treatment of myasthenia gravis by cyclic nucleotide phosphodiesterase inhibition” (priority 2000, dated 2002).
